Laboratory results taken from the supplement of paper PMC11451515.

System: NOMO1
Experiment: cell viability relative to DMSO control; higher = less cytotoxic
Settings: 48 h
How it was run: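 Viability was expressed as a per-plate percentage of DMSO wells, with cell-free wells as background. Leukemia cells (NOMO1 or SEM at 500 cells/well, P12-Ichikawa at 1000 cells/well) were adapted for at least four passages in each medium and seeded in 1536-well plates (5 μl). Library compounds in DMSO were pin-dosed over an 11-point threefold series from 47 μM to 0.79 nM, and CellTiter-Glo One luminescence was read after 48 h at 37°C.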

[1] = HPLM + 10% dialyzed FBS, 0.000781 µM
[2] = HPLM + 10% dialyzed FBS, 0.00234 µM
[3] = HPLM + 10% dialyzed FBS, 0.00702 µM
[4] = HPLM + 10% dialyzed FBS, 0.0211 µM
[5] = HPLM + 10% dialyzed FBS, 0.0632 µM
[6] = HPLM + 10% dialyzed FBS, 0.19 µM
[7] = HPLM + 10% dialyzed FBS, 0.569 µM
[8] = HPLM + 10% dialyzed FBS, 1.71 µM
[9] = HPLM + 10% dialyzed FBS, 5.12 µM
[10] = HPLM + 10% dialyzed FBS, 15.4 µM
[11] = HPLM + 10% dialyzed FBS, 46.1 µM
[12] = RPMI 5 mM glucose + 10% FBS, 0.000781 µM
[13] = RPMI 5 mM glucose + 10% FBS, 0.00234 µM
[14] = RPMI 5 mM glucose + 10% FBS, 0.00702 µM
[15] = RPMI 5 mM glucose + 10% FBS, 0.0211 µM
[16] = RPMI 5 mM glucose + 10% FBS, 0.0632 µM
[17] = RPMI 5 mM glucose + 10% FBS, 0.19 µM
[18] = RPMI 5 mM glucose + 10% FBS, 0.569 µM
[19] = RPMI 5 mM glucose + 10% FBS, 1.71 µM
[20] = RPMI 5 mM glucose + 10% FBS, 5.12 µM
[21] = RPMI 5 mM glucose + 10% FBS, 15.4 µM
[22] = RPMI 5 mM glucose + 10% FBS, 46.1 µM
[23] = RPMI 5 mM glucose + 10% dialyzed FBS, 0.000781 µM
[24] = RPMI 5 mM glucose + 10% dialyzed FBS, 0.00234 µM
[25] = RPMI 5 mM glucose + 10% dialyzed FBS, 0.00702 µM
[26] = RPMI 5 mM glucose + 10% dialyzed FBS, 0.0211 µM
[27] = RPMI 5 mM glucose + 10% dialyzed FBS, 0.0632 µM
[28] = RPMI 5 mM glucose + 10% dialyzed FBS, 0.19 µM
[29] = RPMI 5 mM glucose + 10% dialyzed FBS, 0.569 µM
[30] = RPMI 5 mM glucose + 10% dialyzed FBS, 1.71 µM
[31] = RPMI 5 mM glucose + 10% dialyzed FBS, 5.12 µM
[32] = RPMI 5 mM glucose + 10% dialyzed FBS, 15.4 µM
[33] = RPMI 5 mM glucose + 10% dialyzed FBS, 46.1 µM

Compound | cell viability [1] | cell viability [2] | cell viability [3] | cell viability [4] | cell viability [5] | cell viability [6] | cell viability [7] | cell viability [8] | cell viability [9] | cell viability [10] | cell viability [11] | cell viability [12] | cell viability [13] | cell viability [14] | cell viability [15] | cell viability [16] | cell viability [17] | cell viability [18] | cell viability [19] | cell viability [20] | cell viability [21] | cell viability [22] | cell viability [23] | cell viability [24] | cell viability [25] | cell viability [26] | cell viability [27] | cell viability [28] | cell viability [29] | cell viability [30] | cell viability [31] | cell viability [32] | cell viability [33]
OC[C@H]1OC(OC2=CC3=C(C(=C2)O)C(=O)\C(=C/O3)C4=CC=C(O)C=C4)[C@H](O)[C@@H](O)[C@@H]1O (stereo partly specified) | 94% | 86.6% | 79.6% | 92.8% | 89.9% | 89.2% | 72% | 61.9% | 88.9% | 72% | 74.2% | 78.9% | 92.5% | 85.9% | 77.8% | 92% | 90.7% | 87.9% | 84.7% | 84.1% | 86.3% | 72% | 88.5% | 73.9% | 78.6% | 78.5% | 80.8% | 73.4% | 80.4% | 82.8% | 76.7% | 77.8% | 66.7%
CC(C)(O)C(=O)Nc1ccc([N+](=O)[O-])c(C(F)(F)F)c1 | 94.7% | 116% | 131% | 124% | 122% | 135% | 126% | 65.8% | 38% | 30.6% | 30.5% | 118% | 123% | 124% | 122% | 120% | 132% | 125% | 51.1% | 29% | 24.1% | 25.7% |  |  |  |  |  |  |  |  |  |  | 
O=C(NCC1CCOCC1)c1cnc(Nc2ccc(Cl)cc2Cl)nc1C(F)(F)F | 101% | 121% | 121% | 114% | 126% | 117% | 122% | 114% | 131% | 141% | 127% | 96.5% | 112% | 116% | 121% | 116% | 117% | 117% | 126% | 127% | 131% | 124% | 109% | 129% | 116% | 122% | 131% | 121% | 122% | 116% | 120% | 134% | 131%
C[N]1C=C(C=N1)C2=CC=C3N=CC\4=C(N(C(=O)\C=C4)C5=CC6=C(CCN6C(=O)C=C)C=C5)C3=C2 |  |  |  |  |  |  |  |  |  |  |  | 100% | 104% | 108% | 95.2% | 102% | 109% | 95.7% | 88.8% | 69.3% | 13.5% | 9.25% | 105% | 108% | 109% | 119% | 97.2% | 107% | 96% | 90.6% | 47.4% | 6.23% | 5.9%
Oc1ccc([C@@H]2Oc3ccc(O)cc3[C@@H]3CCC[C@@H]32)cc1 | 92.1% | 93.1% | 95.1% | 102% | 98% | 89.3% | 90.5% | 94.2% | 79.3% | 62% | 31.8% | 93.3% | 105% | 97.5% | 88.1% | 87.3% | 100% | 99.9% | 89.7% | 81.8% | 77% | 28.8% | 93.8% | 92.1% | 97.7% | 90.7% | 90.8% | 94.1% | 90.7% | 87.4% | 83.2% | 63.7% | 25.6%
CCOC(=O)[C@H]1O[C@@H]1C(=O)N[C@@H](CC(C)C)C(=O)NCCC(C)C |  |  |  |  |  |  |  |  |  |  |  | 114% | 107% | 107% | 117% | 123% | 116% | 114% | 104% | 102% | 92.2% | 12.6% | 114% | 112% | 121% | 126% | 106% | 121% | 113% | 109% | 102% | 112% | 15.1%
N#CC[C@H](C1CCCC1)n1cc(-c2ncnc3[nH]ccc23)cn1 | 117% | 106% | 103% | 91.3% | 105% | 107% | 85.1% | 85.8% | 61.4% | 21.2% | 15.7% | 94.3% | 84.2% | 101% | 78.9% | 82.7% | 79.1% | 87.1% | 78.1% | 91.3% | 43% | 14.8% | 97.1% | 102% | 93.2% | 66% | 108% | 93.8% | 88.7% | 89.9% | 79.9% | 61.2% | 41.2%
COc1cc2c(Nc3ccc(Cl)c(Cl)c3F)ncnc2cc1OC[C@@H]1C[C@@H]2CN(C)C[C@@H]2C1 | 97.3% | 99% | 106% | 104% | 128% | 127% | 93.3% | 101% | 96.6% | 45.6% | 6.66% | 93.7% | 104% | 115% | 106% | 103% | 115% | 110% | 109% | 111% | 97.8% | 6.22% | 93.4% | 116% | 111% | 112% | 112% | 104% | 107% | 105% | 111% | 92.1% | 4.94%
